According to EP1707622A1, “USE OF COMPOUNDS THAT REGULATE HDAC6 TUBULIN DEACETYLASE ACTIVITY IN THE PREPARATION OF PHARMACEUTICAL COMPOSITIONS, METHOD OF IDENTIFYING THE AFOR[…], SAID PHARMACEUTICAL COMPOUNDS AND APPLICATIONS THEREOF” (UNIVERSIDAD AUTONOMA DE MADRID CIUDAD UNIVERSITARIA …, priority 2004, dated 2005):
Where a SMILES comes first, the peptide text is derived from it. [ ]: non-standard residue; d: D form. Aoe = N[C@@H](CCCCCC(=O)[C@@H]1CO1)C(=O)O

Tested on: J77 cells
Test: CD3 clustering in the central region of the immunological synapse
Format: cell-based, human
Conditions: J77 cells, relative to cells transfected with the deficient mutant or lymphocytes treated with TSA; Figure 5B

SMILES	percentage of mature synapses
O=C1N[C@@H](Cc2ccccc2)C(=O)N2CCC[C@@H]2C(=O)N[C@@H](CCCCCC(=O)[C@@H]2CO2)C(=O)N[C@H]1Cc1ccccc1 [trapoxin B] (cyclo(FF[dP][Aoe]))	neither trapoxin B nor sodium butyrate modified it in a significant manner
CCCC(=O)[O-].[Na+] [sodium butyrate]	neither trapoxin B nor sodium butyrate modified it in a significant manner
